Molecules are shown by their SMILES.

The first test has as its target Kgp (Porphyromonas gingivalis, UniProt P72197). Description: Lysine gingipain (Kgp) fluorogenic inhibition assay. The note with it: Kgp IC50 average, 0.1 nM Kgp, 10 uM Z-His-Glu-Lys-MCA, 90 minutes, 37° C. The class given is biochemical. The procedure:
The capacities of compounds of the present invention to inhibit the activity of lysine gingipain were measured in a fluorogenic assay similar to those described in Barret Biochemical Journal. 1980, 187(3), 909. The specific assay conditions were as follows. Buffer: pH=7.5, 100 mM Tris-HCl, 75 mM NaCl, 2.5 mM CaCl2, 10 mM cysteine, 1% DMSO after all additions. Protein: 0.1 nM Kgp, isolated from culture of Porphyromonas gingivalis, as described in Pike et al. J. Biol. Chem. 1994, 269(1), 406, and Potempa and Nguyen. Current Protocols in Protein Science. 2007, 21.20.1-21.20.27. Fluorogenic substrate: 10 uM Z-His-Glu-Lys-MCA. Time=90 minutes. Temperature=37° C. Each compound: 10 concentrations, starting at either 100 uM or 100 nM, with lower concentrations generated by serial 3-fold dilutions. By testing a range of concentrations for each compound, the concentration required to inhibit the activity of lysine gingipain by 50% (the “IC50”) was determined. Under the described assay conditions, signal-to-noise was excellent, and Z factor was greater than 0.6.
`NCCCCC(NC(=O)[C@@H]1CCCN(C(=O)CCc2ccccc2)C1)C(=O)c1nc2ccccc2s1` (single isomer, unassigned) [Compound 14]: the IC50 (commonly the concentration at which inhibition is half-maximal) lay in the range of 0.001 to 0.01 µM. On the same count and under the same terms, under `NCCCC[C@H](NC(=O)C1CCCOC1)C(=O)c1nc2ccccc2s1` (single isomer, unassigned) [Compound 18] stands 0.01 to 0.025 µM; under `NCCCC[C@H](NC(=O)C1CCCCO1)C(=O)c1nc2ccccc2s1` (single isomer, unassigned) [Compound 25], 0.025 to 0.05 µM.

`NCCCC[C@H](NC(=O)C1CCCO1)C(=O)c1nc2ccccc2s1` (single isomer, unassigned) [Compound 34] registered an IC50 of 0.001 to 0.01 µM.

Compound `NCCCC[C@H](NC(=O)c1ccccc1C(F)(F)F)C(=O)c1nc2ccccc2s1` [Compound 7, N-[(1S)-5-amino-1-(1,3-benzothiazole-2-carbonyl)pentyl]-2-(trifluoromethyl)benzamide] had an IC50 of 0.025 to 0.05 µM. Take `CC(=O)N1CCC[C@H](C(=O)N[C@@H](CCCCN)C(=O)c2nc3ccccc3s2)C1` [Compound 8, (3S)-1-acetyl-N-[(1S)-5-amino-1-(1,3-benzothiazole-2-carbonyl)pentyl]piperidine-3-carboxamide]: the IC50 was in the range of 0.01 to 0.025 µM.

Consider `CC(=O)N1CCC[C@@H](C(=O)N[C@@H](CCCCN)C(=O)c2nc3ccccc3s2)C1` [Compound 9, (3R)-1-acetyl-N-[(1S)-5-amino-1-(1,3-benzothiazole-2-carbonyl)pentyl]piperidine-3-carboxamide], for which the IC50 lay within 0.001 to 0.01 µM.

In the case of `CC(=O)N1CCC[C@H](C(=O)N[C@H](CCCCN)C(=O)c2nc3ccccc3s2)C1` [Compound 10, (3S)-1-acetyl-N-[(1R)-5-amino-1-(1,3-benzothiazole-2-carbonyl)pentyl]piperidine-3-carboxamide], the IC50 was 0.01 to 0.025 µM. Same read-out and setting: next, `CC(=O)N1CCC[C@@H](C(=O)N[C@H](CCCCN)C(=O)c2nc3ccccc3s2)C1` [Compound 11, (3R)-1-acetyl-N-[(1R)-5-amino-1-(1,3-benzothiazole-2-carbonyl)pentyl]piperidine-3-carboxamide]: 0.001 to 0.01 µM; `NCCCC[C@H](NC(=O)c1ccccn1)C(=O)c1nc2ccccc2s1` [Compound 12, N-[(1S)-5-amino-1-(1,3-benzothiazole-2-carbonyl)pentyl]pyridine-2-carboxamide]: 0.05 to 0.1 µM; `NCCCC[C@H](NC(=O)c1ccncc1)C(=O)c1nc2ccccc2s1` [Compound 13, N-[(1S)-5-amino-1-(1,3-benzothiazole-2-carbonyl)pentyl]pyridine-4-carboxamide]: 0.025 to 0.05 µM. Still for that read-out and setting: under `NCCCC[C@H](NC(=O)C1CCOCC1)C(=O)c1nc2ccccc2s1` [Compound 22, N-[(1S)-5-amino-1-(1,3-benzothiazole-2-carbonyl)pentyl]tetrahydropyran-4-carboxamide] stands 0.01 to 0.025 µM; under `NCCCC[C@H](NC(=O)OCc1ccccc1)C(=O)c1nc2ccccc2s1` [Compound 23, Benzyl-N-[(1S)-5-amino-1-(1,3-benzothiazole-2-carbonyl)pentyl]carbamate], 0.1 to 0.25 µM. With `NCCCC[C@H](NC(=O)C1CCCC1)C(=O)c1nc2ccccc2s1` [Compound 24, N-[(1S)-5-amino-1-(1,3-benzothiazole-2-carbonyl)pentyl]cyclo-pentanecarboxamide], the IC50 fell in the range of 0.001 to 0.01 µM.

Staying with this test, now noted: read-out: Kgp IC50 average; 0.1 nM Kgp, 10 uM Z-His-Glu-Lys-MCA, 90 minutes, 37° C.
Take `NCCCCC(NC(=O)[C@@H]1CCCN(C(=O)CCc2ccccc2)C1)C(=O)c1nc2ccccc2s1` (single isomer, unassigned) [Compound 15]: the IC50 is 0.001 to 0.01 µM. On the same count and under the same terms, next, `NCCCC[C@H](NC(=O)C1CCCOC1)C(=O)c1nc2ccccc2s1` (single isomer, unassigned) [Compound 19]: 0.01 to 0.025 µM; `NCCCC[C@H](NC(=O)C1CCCCO1)C(=O)c1nc2ccccc2s1` (single isomer, unassigned) [Compound 26]: 0.025 to 0.05 µM; `NCCCC[C@H](NC(=O)C1CCCO1)C(=O)c1nc2ccccc2s1` (single isomer, unassigned) [Compound 35]: 0.001 to 0.01 µM.

The values are drawn from patent US11332464B2, “Inhibitors of lysine gingipain” (priority 2014, dated 2022).
